For the experiment, the system named is phenol red retention in circulation. As to the kind of experiment: Uricosuric activity by phenol red retention test in mice. Type of experiment: in vivo, male mice. The conditions noted are these: mice, 30 min before 75 mg/kg phenol red, blood 60 min after phenol red; for response vs control in vivo at 200 mg/kg: Mus musculus, 1 h. Here is the method: Blood samples were collected from the retro-orbital plexus into heparinized capillary tubes 60 minutes after the phenol red injection. The retention of phenol red in circulation was determined according to the method described in J. Med. Pharmaceu.
Benzobromarone was administered subcutaneously to mice in an amount of 200 mg./kg. as a control or standard.

Where [1] appears, read: sc, s.c. 200 mg/kg, read-out: phenol red retention, percentage by comparison with the control group, S.C. (200 mg/kg).
Where [2] appears, read: po, p.o. 200 mg/kg, read-out: phenol red retention, percentage by comparison with the control group, P.O. (200 mg/kg).

Where two headings read alike, the source gives them in different places.

Regarding `CCc1oc2ccccc2c1C(=O)c1ccccc1OCC(=O)O` [Compound 1, 2-(2-ethyl-3-benzofuroyl)phenoxyacetic acid], the response vs control in vivo at 200 mg/kg under setting [1] came to 152 ± 15.2%.

As for `CCc1oc2ccccc2c1C(=O)c1cccc(OCC(=O)O)c1` [Compound 2, 3-(2-ethyl-3-benzofuroyl)phenoxyacetic acid], under setting [1], the response vs control in vivo at 200 mg/kg was 180 ± 15.4%. Consider `CCc1oc2ccccc2c1C(=O)c1ccc(OCCC(=O)O)cc1` [Compound 4, 4-(2-ethyl-3-benzofuroyl)phenoxypropionic acid], for which, under setting [1], the response vs control in vivo at 200 mg/kg is 143 ± 19%. For `CCc1oc2ccccc2c1C(=O)c1ccc(OC(C)C(=O)O)cc1` (stereo not drawn) [Compound 5, 4-(2-ethyl-3-benzofuroyl)phenoxy-2-methylacetic acid], the response vs control in vivo at 200 mg/kg reads like this: under setting [2], 176 ± 17.6%; under setting [1], 158 ± 15.1%.

In the case of `CCOC(=O)COc1ccc(C(=O)c2c(CC)oc3ccccc23)cc1` [Compound 6, Ethyl 4-(2-ethyl-3-benzofuroyl)phenoxyacetate], the response vs control in vivo at 200 mg/kg under setting [2] came out at 119 ± 2.3% and the response vs control in vivo at 200 mg/kg under setting [1] was 207 ± 32.5%. In the same order, the values of `CCc1oc2ccccc2c1C(=O)c1ccc(OCC(N)=O)cc1` [Compound 7, 4-(2-ethyl-3-benzofuroyl)phenoxyacetamide] are 104 ± 8.3% and 123 ± 23.1%.

On to `CCc1oc2ccccc2c1C(=O)c1ccc(OCC(=O)NO)cc1` [Compound 8, 4-(2-ethyl-3-benzofuroyl)phenoxyacetohydroxamide], for which the response vs control in vivo at 200 mg/kg is, setting by setting: under setting [2], 129 ± 17.6%; under setting [1], 167 ± 26.6%. Turning to `CCc1oc2ccccc2c1C(=O)c1ccc(OCC(=O)NCC(=O)OC)cc1` [Compound 9, Methyl 4-(2-ethyl-3-benzofuroyl)phenoxyacetoglycinate], the response vs control in vivo at 200 mg/kg under setting [2] came out at 153 ± 15.8% and the response vs control in vivo at 200 mg/kg under setting [1] was found to be 125 ± 18.8%. On to `CCc1oc2ccccc2c1C(=O)c1ccc(OCC(=O)NCC(N)=O)cc1` [Compound 10, 4-(2-ethyl-3-benzofuroyl)phenoxyacetoglycinamide], for which the response vs control in vivo at 200 mg/kg runs as follows: under setting [2], 132 ± 26.3%; under setting [1], 123 ± 23.1%.

Regarding `CCc1oc2ccccc2c1C(=O)c1ccc(OCC(=O)OC)cc1` [Compound 11, Methyl 4-(2-ethyl-3-benzofuroyl)phenoxyacetate], under setting [1], the response vs control in vivo at 200 mg/kg was found to be 114 ± 9.5%.

As for `CCc1oc2ccccc2c1C(O)c1ccc(O)cc1` (stereo not drawn) [Compound 12, (2-ethyl-3-benzofuranyl)-4-hydroxyphenylmethanol], the response vs control in vivo at 200 mg/kg under setting [1] came out at 100 ± 21.4%.

Consider `CCOC(=O)COc1ccc(C(O)c2c(CC)oc3ccccc23)cc1` (stereo not drawn) [Compound 13, Ethyl 4-(2-ethyl-3-hydroxymethylbenzofuranyl)phenoxyacetate], for which the response vs control in vivo at 200 mg/kg under setting [1] was determined as 114 ± 14.3%. On to `CCOC(=O)COc1ccc(C(OCC)c2c(CC)oc3ccccc23)cc1` (stereo not drawn) [Compound 14], for which the response vs control in vivo at 200 mg/kg is 120 ± 15% under setting [2] and 135 ± 34.6% under setting [1]. In the same order, the values of `CCCCOC(=O)COc1ccc(C(OCCCC)c2c(CC)oc3ccccc23)cc1` (stereo not drawn) [Compound 15, Butyl 4-(2-ethyl-3-butoxymethylbenzofuranyl)phenoxyacetate] are 175 ± 35% and 165 ± 34.6%. In the case of `Cc1oc2ccccc2c1C(=O)c1ccc(O)cc1` [Compound 16, 2-methyl-3-(4-hydroxybenzoyl)benzofuran], the response vs control in vivo at 200 mg/kg amounted to 112 ± 12.5% under setting [2] and 111 ± 11.1% under setting [1]. Regarding `CCOC(=O)COc1ccc(C(=O)c2c(C)oc3ccccc23)cc1` [Compound 17, Ethyl 4-(2-methyl-3-benzofuroyl)phenoxyacetate], the response vs control in vivo at 200 mg/kg was 105 ± 10% under setting [2] and 115 ± 19.2% under setting [1]. `Cc1oc2ccccc2c1C(=O)c1ccc(OCC(=O)O)cc1` [Compound 18, 4-(2-methyl-3-benzofuroyl)phenoxyacetic acid]: the response vs control in vivo at 200 mg/kg by setting is: under setting [2], 135 ± 40%; under setting [1], 112 ± 15.4%.

Regarding `CCc1oc2ccccc2c1C(=O)c1ccc(O)c(Cl)c1` [Compound 19, 2-ethyl-3-benzofuranyl 3-chloro-4-hydroxyphenyl ketone], the response vs control in vivo at 200 mg/kg under setting [1] came to 105 ± 19%. On the same count and under the same terms, then `CCOC(=O)COc1ccc(C(=O)c2c(CC)oc3ccccc23)cc1Cl` [Compound 20, Ethyl 2-chloro-4-(2-ethyl-3-benzofuroyl)phenoxyacetate], with 128 ± 16.7%. Turning to `C=C(CC(=O)c1c(CC)oc2ccccc12)C(=O)O` [Compound 21, 2-methylene-4-oxo-4-(2-ethyl-3-benzofuranyl)butyric acid], the response vs control in vivo at 200 mg/kg turned out to be 165 ± 21.7% under setting [2] and 100 ± 13.6% under setting [1]. In the case of `CCc1oc2ccccc2c1C(=O)c1ccc(O)c(C)c1` [Compound 23, 2-ethyl-3-benzofuranyl 3-methyl-4-hydroxyphenyl ketone], the response vs control in vivo at 200 mg/kg under setting [1] was found to be 81 ± 14.3%.

Consider `CCOC(=O)COc1ccc(C(=O)c2c(CC)oc3ccccc23)cc1C` [Compound 24, Ethyl 2-methyl-4-(2-ethyl-3-benzofuroyl)phenoxyacetate], for which the response vs control in vivo at 200 mg/kg under setting [1] turned out to be 172 ± 27.7%. Take `CCc1oc2ccccc2c1C(=O)c1ccc(O)c([N+](=O)[O-])c1` [Compound 26, 2-ethyl-3-benzofuranyl 3-nitro-4-hydroxyphenyl ketone]: where the note is “s.c. 100 mg/kg (footnote *)”, the “phenol red retention, percentage by comparison with the control group, S.C. (given at a dose of 100 mg/kg)” value stood at 222.2 ± 27.7%.

For the molecule `CCOC(=O)COc1ccc(C(=O)c2c(CC)oc3ccccc23)cc1[N+](=O)[O-]` [Compound 27, Ethyl 2-nitro-4-(2-ethyl-3-benzofuroyl)phenoxyacetate], under setting [1], the response vs control in vivo at 200 mg/kg amounted to 111 ± 11.1%.

As for `CCc1sc2ccccc2c1C(=O)c1ccc(O)cc1` [Compound 29, 2-ethyl-3-(4-hydroxybenzoyl)thianaphthene], under setting [1], the response vs control in vivo at 200 mg/kg was 100 ± 21.4%. As for `CCOC(=O)COc1ccc(C(=O)c2c(CC)sc3ccccc23)cc1` [Compound 30, Ethyl 4-(2-ethyl-3-benzothenoyl)phenoxyacetate], the response vs control in vivo at 200 mg/kg under setting [1] came out at 85.7 ± 14.3%. For the molecule `CCc1sc2ccccc2c1C(=O)c1ccc(OCC(=O)O)cc1` [Compound 31, 4-(2-ethyl-3-benzothenoyl)phenoxyacetic acid], the response vs control in vivo at 200 mg/kg is, setting by setting: under setting [2], 162 ± 31.3%; under setting [1], 144 ± 22.2%. On to `CCc1oc2ccccc2c1C(=O)c1ccc(O)c(C)c1C` [Compound 32, 2-ethyl-3-(2,3-dimethyl-4-hydroxybenzoyl)benzofuran], for which the response vs control in vivo at 200 mg/kg under setting [2] is 112 ± 18.8%.

Take `CCc1oc2ccccc2c1C(=O)c1ccc(OCC(=O)OC)c(C)c1C` [Compound 33, Methyl 2,3-dimethyl-4-(2-ethyl-3-benzofuroyl)phenoxyacetate]: under setting [2], the response vs control in vivo at 200 mg/kg stood at 133 ± 15.6%. Same read-out and setting: then `CCOC(=O)COc1ccc(C(=O)c2c(CC)oc3ccccc23)c(C)c1C` [Compound 34, Ethyl 2,3-dimethyl-4-(2-ethyl-3-benzofuroyl)phenoxyacetate], with 124 ± 28.6%. On the same count and under the same terms, then `CCc1oc2ccccc2c1C(=O)c1cc(C)c(O)cc1C` [Compound 36, 2-ethyl-3-(2,5-dimethyl-4-hydroxybenzoyl)benzofuran], with 131 ± 15.6%; and `CCc1oc2ccccc2c1C(=O)c1cc(C)c(OCC(=O)OC)cc1C` [Compound 37, Methyl 2,5-dimethyl-4-(2-ethyl-3-benzofuroyl)phenoxyacetate], with 254 ± 15.6%; and `CCOC(=O)COc1cc(C)c(C(=O)c2c(CC)oc3ccccc23)cc1C` [Compound 38, Ethyl 2,5-dimethyl-4-(2-ethyl-3-benzofuroyl)phenoxyacetate], with 324 ± 19%. On the same count and under the same terms, then `CCc1oc2ccccc2c1C(=O)c1cc(C)c(O)c(C)c1` [Compound 40, 2-ethyl-3-(3,5-dimethyl-4-hydroxybenzoyl)benzofuran], with 183 ± 22.2%; and `CCOC(=O)COc1c(C)cc(C(=O)c2c(CC)oc3ccccc23)cc1C` [Compound 41, Ethyl 2,6-dimethyl-4-(2-ethyl-3-benzofuroyl)phenoxyacetate], with 183 ± 27.8%. Consider `CCc1oc2ccccc2c1C(=O)c1cc(C)c(OCC(=O)O)c(C)c1` [Compound 42, 2,6-dimethyl-4-(2-ethyl-3-benzofuroyl)phenoxyacetic acid], for which the response vs control in vivo at 200 mg/kg under setting [2] stood at 394 ± 44.4%. Same read-out and setting: then `CCc1oc2ccccc2c1C(=O)c1ccc(OCc2nnn[nH]2)cc1` [Compound 43, 5-[4-(2-ethyl-3-benzofuroyl)phenoxymethyl]tetrazole], with 430 ± 80%; and `CCc1oc2ccccc2c1C(=O)c1ccc(OCc2nnn[nH]2)c(Cl)c1` [Compound 44, 5-[2-chloro-4-(2-ethyl-3-benzofuroyl)phenoxymethyl]tetrazole], with 175 ± 17.9%; and `CCc1oc2ccccc2c1C(=O)c1ccc(OCc2nnn[nH]2)c(C)c1` [Compound 45, 5-[2-methyl-4-(2-ethyl-3-benzofuroyl)phenoxymethyl]tetrazole], with 218 ± 21.4%.

`CCc1oc2ccccc2c1C(=O)c1ccc(OCc2nnn[nH]2)c(C)c1C` [Compound 46, 5-[2,3-dimethyl-4-(2-ethyl-3-benzofuroyl)phenoxymethyl]tetrazole]: the response vs control in vivo at 200 mg/kg under setting [2] is 240 ± 64%. Same read-out and setting: then `CCc1oc2ccccc2c1C(=O)c1cc(C)c(OCc2nnn[nH]2)cc1C` [Compound 47, 5-[2,5-dimethyl-4-(2-ethyl-3-benzofuroyl)phenoxymethyl]tetrazole], with 232 ± 28%.

The values are drawn from patent publication US4797415A, “Benzofuran derivatives and use thereof for treating hyperuricemia” (Kotobuki Seiyaku Company Limited, priority 1982, dated 1989).
